Assay results taken from ChEMBL document CHEMBL1932950, “Inhibitory constituents of Nardostachys chinensis on nitric oxide production in RAW 264.7 macrophages” (Bioorg Med Chem Lett, 2012).

Columns and labels:
RAW264.7 [1] = assay: Antiinflammatory activity in mouse RAW264.7 cells assessed as inhibition of LPS-induced NO production after 24 hrs by Griess method; type: functional, cell-based; conditions: for IC50: RAW264.7, 24 h
RAW264.7 [2] = assay: Cytotoxicity against mouse RAW264.7 cells by CCK assay; type: cell-based

Structure (SMILES) | inhibition (RAW264.7 [1]) | IC50 (RAW264.7 [1]) | Activity (RAW264.7 [2])
C[C@@H]1CCC=C2C(=O)C=C[C@@H](O)[C@]21C | Dose-dependent effect | 8.4 µM | Non-toxic
C[C@@H]1CCC=C2C(=O)CC(=O)C[C@]21C |  | > 50 µM | Non-toxic
COc1cc([C@H]2OC[C@H]3[C@@H]2CO[C@@H]3c2ccc(O)c(OC)c2)ccc1O [(+)-PINORESINOL] |  |  | Non-toxic
COc1cc([C@@H]2OC[C@@H]3[C@H]2CO[C@H]3c2ccc(O)c(OC)c2)ccc1O [(+)-PINORESINOL] |  | 33.5 µM | 
O=C(O)/C=C/c1ccc(O)cc1 [COUMARIC ACID] |  | > 50 µM | Non-toxic
C[C@@H]1CC(=O)C=C2[C@H](O)C[C@@H]3[C@@H](C3(C)C)[C@]21C [DEBILON] |  | > 50 µM | Non-toxic
COc1cc(C2OC2CO)ccc1O (centres undefined) [EPOXYCONIFERYL ALCOHOL] |  | > 50 µM | Non-toxic
COc1ccc(/C=C/C(=O)O)cc1O [ISOFERULIC ACID] |  | > 50 µM | Non-toxic
C[C@@H]1C[C@@H](O)C=C2C(=O)C[C@H]3OOC(C)(C)[C@H]3[C@]21C [KANSHONE B] | Dose-dependent effect | 11.5 µM | Non-toxic
C[C@@H]1C[C@H](O)C=C2C(=O)C=C[C@@H](O)[C@]21C [NARCHINOL B] | Dose-dependent effect | 4.6 µM | Non-toxic
C[C@@H]1C[C@@H](O)C=C2C(=O)C=C[C@@H](O)[C@]21C [NARCHINOL C] | Dose-dependent effect | 21.6 µM | Non-toxic
C[C@@H]1CCC=C2C(=O)C[C@H]3OOC(C)(C)[C@H]3[C@]21C [NARDOSINONE] | Dose-dependent effect | 11.1 µM | Non-toxic
C[C@H]1[C@H](C)CC[C@]2(C(=O)O)CC[C@]3(C)C(=CC[C@@H]4[C@@]5(C)CC[C@H](O)C(C)(C)[C@@H]5CC[C@]43C)[C@H]12 [URSOLIC ACID] |  | > 50 µM | Non-toxic
